Measurements: patent publication US20260248774A1, “INHIBITORS OF BACTERIAL TYPE III SECRETION SYSTEM” (MICROBIOTIX, INC., priority 2022, published 2026)
pEC50, pIC50: −log10 of the molar value. Converted amounts (≈) assume the structure as drawn. Like-named read-outs stand apart in the source and are kept apart here.

Legend:
[1] = Mammalian cytotoxicity (CC50), MTS conversion; assay type: cell-based, human; settings: human
Description: (§1) Determination of Mammalian Cytotoxicity.
(§2) Following incubation for 3 days at 37° C. in VP-SFM, cell viability was measured with the vital tetrazolium salt stain 3-(4,5-dimethylthiazol-2-yl)-2,5 diphenyltetrazolium bromide according to the manufacturer's instructions (Promega, Madison, Wisconsin). Values were determined in triplicate using dilutions of inhibitory compound from 100 μM to 0.2 μM.

[2] = Kinetic aqueous solubility (nephelometric assay); assay type: physicochemical; settings: for solubility kinetic: kinetic from dmso stock, Table 9, kinetic solubility in water (nephelometric assay); for Sol: Table 1
From the text: Solubility. The maximum aqueous solubility of analogs will be initially determined by nephelometry using a published method (44).

[3] = tested on: P. aeruginosa T3SS-mediated secretion (exoT-luxCDABE reporter strain MDM852); assay: Luciferase (exoT-lux) transcriptional reporter assay of T3SS-mediated secretion; assay type: cell-based, Pseudomonas aeruginosa
From the text: Luciferase Transcriptional Reporter Assay of T3SS-Mediated Secretion with a Luminescent Signal.
A transcriptional fusion of the Photorhabdus luminescens lux operon (luxCDABE) to P. aeruginosa PAO1 T3SS effector gene exoT (PA0044) was constructed and used to build strain MDM852 as described previously (Aiello et al., 2010, Antimicrob Agents Chemother, 54:1988-1999). Induction of T3SS operons by Ca^++ depletion due to EGTA addition results in secretion of the T3SS negative regulator ExsE and the production of high levels of T3SS components including the luxCDABE gene products, which results in luminescence that is easily detected by a microplate reader. Inhibition of T3SS-mediated secretion of the negative regulator ExsE by a small molecule inhibitor causes reduced production of luxCDABE gene products and reduced luminescence. For inhibitor IC50 testing, compounds were added to a 96-well microplate in a concentration dilution series. Reporter strain MDM852 was grown at 37° C. in LBG to OD600 ~0.025-0.05, transferred into the microplate (50 uL/well) containing test compounds and EGTA (5 uL of 0.1 M stock solution), which was covered with a translucent gas-permeable seal (Abgene, Inc., Cat. No. AB-0718). […] Plates were incubated at room temperature for 300 min. Then, luminescence was measured in an Envision Multilabel microplate reader (PerkinElmer). The screening window coefficient, Z′-factor (see Zhang, et al., 1999, J. Biomol. Screen., 4:67-73), defined as the ratio of the positive and negative control separation band to the signal dynamic range of the assay, averaged 0.7 for the assay.

[4] = tested on: P. aeruginosa T3SS-mediated secretion of ExoS-β-lactamase fusion protein; assay: Effector-β-lactamase (ExoS-βLA) reporter assay of T3SS-mediated secretion; assay type: cell-based, Pseudomonas aeruginosa; settings: read-out: ExoS-BLA IC50
From the text: Effector-β-Lactamase (βLA) Reporter Assay of T3SS-Mediated Secretion with an Absorbency Signal.
A gene encoding the exoS promoter/regulatory region and an ExoS-β-lactamase (βLA) fusion protein (comprised of the full length P. aeruginosa T3SS effector ExoS fused in reading frame to the TEM-1 β-lactamase gene lacking secretion signal codons) was constructed by splicing by overlap extension PCR (SOE-PCR) (Choi and Schweizer, 2005, BMC Microbiol., 5:30), sequence confirmed, cloned into miniCTX and introduced into P. aeruginosa strain PAO1 to generate strains MDM1746 and MDM1838 as previously described for strain MDM1710 (Bowlin et al., 2014, Antimicrob Agents Chemother., 58:2211-2220). Secretion of ExoS-β-lactamase fusion protein following EGTA addition to induce the T3SS operons was detected by measuring the hydrolysis of the chromogenic β-lactamase substrate nitrocefin in clear 96-well microplates in a modification of a previously described assay (Lee, et al., 2007, Infect. Immun., 75:1089-98). Cells of strain MDM1746, or negative control MDM1838 (which fails to carry out T3SS secretion due to ΔpscF), were sub-cultured in the morning from overnight growths in LBG into 0.1 ml of LBGE with or without test compounds and grown for 150 min. Nitrocefin (100 μg/mL final) was added, and A490 measurements taken every minute for 15 min in a Victor^3V 1420 Multilabel HTS Counter (PerkinElmer). Slopes were calculated as a relative measure of the quantity of the effector-βLA fusion protein secreted and were absolutely dependent on induction with EGTA, and the presence of a functional pscF gene in the P. aeruginosa cells. Typical signal: background ratios were 6-10.

[5] = tested on: T3SS-mediated translocation of ExoU by P. aeruginosa strain MDM1561 (PA99U) into CHO cells; assay: P. aeruginosa ExoU-dependent CHO cell killing assay for T3SS-mediated translocation; assay type: cell-based, Pseudomonas aeruginosa; settings: for pEC50: read-out: Translocation EC50; for potency of inhibition of T3SS-mediated translocation: assessment in text on Table 1
From the text: P. aeruginosa ExoU-Dependent CHO Cell Killing.

[6] = tested on: HeLa cells; assay: Mammalian cytotoxicity (CC50), MTS conversion; assay type: cell-based, human; settings: assessment in text on Table 1
Description: as §1, §2

[7] = tested on: T3SS translocation, clinical isolates of Pseudomonas aeruginosa
[8] = Single dose pharmacokinetic (PK) determination in mice; parameters: species or system CD-1 mice; settings: in vivo
[9] = Table 9, cytotoxicity vs. HeLa cells, read-out: Cytotox CC50
[10] = read-out: LUX Sec IC50, Table 1
[11] = HeLa cells, Table 1, HeLa, read-out: Cytotox-HeLa CC50

Structure (SMILES) | CC50 at 3 days [1, 9] [µM] | solubility kinetic [2] [µM] | pIC50 [3, 10] | pIC50 ([4]; Table 1) | pEC50 ([5]; Table 1) | further results
CC[C@@H](Oc1ncc(Cl)cc1Cl)C(=O)NCc1cccc(C(=O)NC2CN(CC(=O)[O-])C2)c1.[Li+] [MBX-5454A] | ≥ 100 | 200 | – | – | – | –
CC[C@@H](Oc1ncc(Cl)cc1Cl)C(=O)NCc1cccc(C(=O)N2CC3(CC(NCCC(=O)[O-])C3)C2)c1.[Li+] [MBX-5529A] | – | ≥ 400 | – | – | – | –
CC(=O)Nc1ccc(CCNC(=O)C(C)Oc2ccc(Cl)cc2Cl)cc1 (stereo not drawn) [MBX-2837] | – | – | 5.46 | 5.05 | 4.89 | –
CC[C@@H](Oc1ncc(Cl)cc1Cl)C(=O)NCc1cccc(NC(=O)N2CC3(CN(CC(C)(C)C(=O)[O-])C3)C2)c1.[Li+] [MBX-7061A] | – | 1.1 | – | – | – | –
CC[C@@H](Oc1ncc(Cl)cc1Cl)C(=O)NCc1ccc2cc(CN(C)C)[nH]c2c1 [MBX-2867] | – | – | 5.80 | 5.89 | 5.24 | CC50 at 3 days [1, 11]: 30 µM; cytotoxicity [6]: exhibit cytotoxicity; Sol [2]: 3000 µM
CC[C@@H](Oc1ncc(Cl)cc1Cl)C(=O)NCc1cccc(NC(=O)NC2CC3(C2)CN(CCC(=O)O)C3)c1 [MBX-5452A] | – | – | – | – | 5.57 | EC50 [7]: 0.74 µg/mL (≈ 1.31 µM); pEC50 ([5]; Table 6): 5.57
CC[C@@H](Oc1ncc(Cl)cc1Cl)C(=O)NCc1ccc2cc(C(=O)N3CCOCC3)[nH]c2c1 [MBX-3458] | – | – | 5.43 | 6.05 | 5.28 | half-life in mice [8]: short half-lives in mice; CC50 at 3 days [1, 11]: 100 µM; Sol [2]: 25 µM
CC[C@@H](Oc1ncc(Cl)cc1Cl)C(=O)NCc1cccc(C(=O)NC2CC3(C2)CN(CC(=O)[O-])C3)c1.[Li+] [MBX-5527A] | – | ≥ 400 | – | – | – | –
CC[C@@H](Oc1ncc(Cl)cc1Cl)C(=O)NCc1cccc(C(=O)NC2CC3(C2)CN(CCCC(=O)[O-])C3)c1.[Li+] [MBX-5524A] | – | ≥ 400 | – | – | – | –
CC[C@@H](Oc1ncc(Cl)cc1Cl)C(=O)N[C@@H](CO)Cc1ccc(F)cc1 [MBX-4567] | – | – | 5.07 | 4.85 | 4.22 | potency of inhibition of T3SS-mediated translocation [5]: not quite potent enough
CC[C@@H](Oc1ncc(Cl)cc1Cl)C(=O)NCc1cccc(C(=O)NC2CNC2)c1 [MBX-5031] | – | – | 6.70 | 5.77 | 5.77 | –
CC(Oc1ccc(Cl)cc1Cl)C(=O)NCc1ccc2c(c1)OCO2 (stereo not drawn) [MBX-1641, N-(benzo[d][1,3]dioxol-5-ylmethyl)-2-(2,4-dichlorophenoxy)propanamide, reference compound] | – | – | 5.33 | 5.00 | 4.82 | pIC50 ([3]; read-out: LUX IC50, Table 6): 5.33; pIC50 ([4]; Table 6): 5.00; pEC50 ([5]; Table 6): 4.82
CC[C@@H](Oc1ncc(Cl)cc1Cl)C(=O)NCc1cccc(CN)c1 [MBX-4565] | – | – | 5.08 | 5.05 | 4.70 | –
CC[C@@H](Oc1ccc(Cl)c(Cl)c1Cl)C(=O)NCCc1cccc(NC(=O)NC2CC3(C2)CN(CC(=O)O)C3)c1 [MBX-7478A] | ≥ 200 | – | – | – | – | –
CC[C@@H](Oc1ncc(Cl)cc1Cl)C(=O)NC(CO)Cc1ccc(F)cc1 (stereo partly drawn) [MBX-3323] | – | – | 5.28 | 5.30 | 4.89 | potency of inhibition of T3SS-mediated translocation [5]: not quite potent enough
CC[C@@H](Oc1ncc(Cl)cc1Cl)C(=O)NCc1cccc(C(=O)NCC2CC3(C2)CN(CCC(=O)[O-])C3)c1.[Li+] [MBX-5522A] | – | ≥ 400 | – | – | – | –
CCC(Oc1ncc(Cl)cc1Cl)C(=O)NCc1ccc2sccc2c1 (stereo not drawn) [MBX-2359, reference compound] | – | – | 5.89 | 5.82 | – | pIC50 ([3]; read-out: LUX IC50, Table 6): 5.89; pIC50 ([4]; Table 6): 5.82

Structure (SMILES) | CC50 at 3 days [1, 9] [µM] | solubility kinetic [2] [µM] | pIC50 [3, 10] | pIC50 ([4]; Table 1) | pEC50 ([5]; Table 1) | further results
CC[C@@H](Oc1ncc(Cl)cc1Cl)C(=O)NCCc1ccc(NC(C)=O)cc1 [MBX-3337] | – | – | 5.85 | 5.92 | 5.32 | –
CC[C@@H](Oc1ncc(Cl)cc1Cl)C(=O)NCc1cccc(CNC2CC(C(=O)[O-])C2)c1.[Li+] (stereo partly drawn) [MBX-5456A] | 107 | 200 | – | – | – | –
CC[C@@H](Oc1ncc(Cl)cc1Cl)C(=O)NCc1cccc(NC(=O)N2CC3(CN(CCC(=O)[O-])C3)C2)c1.[Li+] [MBX-7062A] | – | 3.5 | – | – | – | –
CCC(Oc1ncc(Cl)cc1Cl)C(=O)NCc1ccc2c(c1)OCO2 (stereo not drawn) [MBX-2263] | – | – | 5.57 | 5.70 | 4.77 | CC50 at 3 days [1, 11]: > 100 µM; Sol [2]: 25 µM; solubility for formulation ([2]; assessment in text on Table 1): not soluble enough
CC[C@@H](Oc1ncc(Cl)cc1Cl)C(=O)NCc1cccc(C(=O)NC2CN(CCC(=O)[O-])C2)c1.[Li+] [MBX-5427A] | ≥ 200 | 100 | – | – | – | –
CC(Oc1ccc(Cl)cc1Cl)C(=O)NC(CO)c1ccc(F)cc1 (stereo not drawn) [MBX-2625] | – | – | 5.15 | 5.30 | 4.66 | –
CC(Oc1ccc(Cl)cc1Cl)C(=O)NCC(O)c1ccc(F)cc1 (stereo not drawn) [MBX-2785] | – | – | 4.74 | 4.82 | 4.60 | potency of inhibition of T3SS-mediated translocation [5]: not quite potent enough
CC[C@@H](Oc1ncc(Cl)cc1Cl)C(=O)NCc1cccc(NC(=O)NCC2CN(CC(=O)O)C2)c1 [MBX-7438A] | ≥ 200 | – | – | – | – | –
CC[C@@H](Oc1ncc(Cl)cc1Cl)C(=O)NCc1cccc(NC(=O)NCCNCC(=O)O)c1 [MBX-7497A] | ≥ 200 | – | – | – | – | –
CC[C@@H](Oc1ncc(Cl)cc1Cl)C(=O)NCc1cccc(NC(=O)NC2COCC(NCCC(=O)O)C2)c1 (stereo partly drawn) [MBX-7531A] | ≥ 200 | – | – | – | – | –
CC[C@@H](Oc1ccc(Cl)c(Cl)c1Cl)C(=O)NCCc1cccc(NC(=O)NC2CC3(C2)CN(CCC(=O)O)C3)c1 [MBX-7477A] | ≥ 200 | – | – | – | – | –
CC[C@@H](Oc1ncc(Cl)cc1Cl)C(=O)NCc1cccc(CC(=O)NC2CC3(C2)CN(CCC(=O)[O-])C3)c1.[Li+] [MBX-5548A] | – | 200 | – | – | – | –
CC[C@@H](Oc1ccc(Cl)c(Cl)c1Cl)C(=O)NCc1cccc(NC(=O)NC2CC3(C2)CN(CC(=O)O)C3)c1 [MBX-7476A] | ≥ 200 | – | – | – | – | –
CC[C@@H](Oc1ncc(Cl)cc1Cl)C(=O)NCc1cccc(NC(=O)NC2CN(CCC(=O)[O-])C2)c1.[Li+] [MBX-5442A] | ≥ 200 | 200 | – | – | – | –
CC[C@@H](Oc1ncc(Cl)cc1Cl)C(=O)NCc1cccc(C(=O)NC2CN(CCCC(=O)[O-])C2)c1.[Li+] [MBX-5430A] | ≥ 200 | 200 | – | – | – | –
CC(Oc1ccc(Cl)cc1Cl)C(=O)NCc1cc2ccccc2[nH]1 (stereo not drawn) [MBX-2624] | – | – | 5.06 | 5.05 | 4.77 | CC50 at 3 days [1, 11]: 9 µM; cytotoxicity [6]: exhibit cytotoxicity; Sol [2]: 100 µM
CCC(Oc1ncc(Cl)cc1Cl)C(=O)NCc1ccc(F)cc1 (stereo not drawn) [MBX-2264] | – | – | 5.70 | 5.70 | < 4.46 | CC50 at 3 days [1, 11]: 85 µM; potency of inhibition of T3SS-mediated translocation [5]: not quite potent enough; Sol [2]: 200 µM
